Test results from ChEMBL document CHEMBL1154932, “Structure-based drug design enables conversion of a DFG-in binding CSF-1R kinase inhibitor to a DFG-out binding mode” (Bioorg Med Chem Lett, 2010).

What follows are molecules tested against Macrophage colony-stimulating factor 1 receptor (Homo sapiens, UniProt P07333) (assay: Inhibition of human CSF1R autophosphorylation expressed in HEK293 cells after 1 hr by ELISA). Conditions: not given.
Chain of Macrophage colony-stimulating factor 1 receptor (P07333 whole entry): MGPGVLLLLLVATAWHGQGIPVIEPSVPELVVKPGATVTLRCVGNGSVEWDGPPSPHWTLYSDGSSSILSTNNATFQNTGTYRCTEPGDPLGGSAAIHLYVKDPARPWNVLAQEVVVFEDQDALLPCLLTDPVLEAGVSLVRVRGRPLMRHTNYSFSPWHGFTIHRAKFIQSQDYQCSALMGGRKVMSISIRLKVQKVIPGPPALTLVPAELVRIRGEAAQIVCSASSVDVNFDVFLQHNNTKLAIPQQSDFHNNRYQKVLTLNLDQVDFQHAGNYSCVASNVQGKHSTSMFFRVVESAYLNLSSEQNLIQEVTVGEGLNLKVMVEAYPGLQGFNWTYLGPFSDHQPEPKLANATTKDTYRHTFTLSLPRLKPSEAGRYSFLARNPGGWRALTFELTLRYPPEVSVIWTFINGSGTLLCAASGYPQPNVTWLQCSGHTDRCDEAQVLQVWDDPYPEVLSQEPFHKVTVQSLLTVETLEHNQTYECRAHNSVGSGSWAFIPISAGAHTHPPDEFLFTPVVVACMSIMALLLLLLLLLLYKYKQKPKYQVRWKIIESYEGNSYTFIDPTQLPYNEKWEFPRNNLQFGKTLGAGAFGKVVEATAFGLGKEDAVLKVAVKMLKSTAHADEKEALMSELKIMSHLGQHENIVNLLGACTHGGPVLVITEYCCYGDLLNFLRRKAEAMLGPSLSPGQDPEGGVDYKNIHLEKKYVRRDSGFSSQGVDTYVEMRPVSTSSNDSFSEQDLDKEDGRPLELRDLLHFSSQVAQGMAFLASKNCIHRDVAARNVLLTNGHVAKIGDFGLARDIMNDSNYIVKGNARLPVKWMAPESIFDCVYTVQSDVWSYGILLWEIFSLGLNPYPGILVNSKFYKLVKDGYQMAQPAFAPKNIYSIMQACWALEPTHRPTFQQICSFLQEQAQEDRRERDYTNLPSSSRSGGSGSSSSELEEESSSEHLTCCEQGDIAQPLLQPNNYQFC
In the case of `COc1ccc(COc2ncc(Oc3nc(-c4cnn(C)c4)cnc3N)cc2OC)cc1`, the IC50 is reported as 0.012 µM.

The molecules below were run against hERG (KCNH2) (Homo sapiens, UniProt Q12809) (assay: Inhibition of CyB-tagged dofetilide binding to human ERG at 10 uM). Conditions: probe CyB-tagged dofetilide.
Chain of hERG (KCNH2) (Q12809 whole entry): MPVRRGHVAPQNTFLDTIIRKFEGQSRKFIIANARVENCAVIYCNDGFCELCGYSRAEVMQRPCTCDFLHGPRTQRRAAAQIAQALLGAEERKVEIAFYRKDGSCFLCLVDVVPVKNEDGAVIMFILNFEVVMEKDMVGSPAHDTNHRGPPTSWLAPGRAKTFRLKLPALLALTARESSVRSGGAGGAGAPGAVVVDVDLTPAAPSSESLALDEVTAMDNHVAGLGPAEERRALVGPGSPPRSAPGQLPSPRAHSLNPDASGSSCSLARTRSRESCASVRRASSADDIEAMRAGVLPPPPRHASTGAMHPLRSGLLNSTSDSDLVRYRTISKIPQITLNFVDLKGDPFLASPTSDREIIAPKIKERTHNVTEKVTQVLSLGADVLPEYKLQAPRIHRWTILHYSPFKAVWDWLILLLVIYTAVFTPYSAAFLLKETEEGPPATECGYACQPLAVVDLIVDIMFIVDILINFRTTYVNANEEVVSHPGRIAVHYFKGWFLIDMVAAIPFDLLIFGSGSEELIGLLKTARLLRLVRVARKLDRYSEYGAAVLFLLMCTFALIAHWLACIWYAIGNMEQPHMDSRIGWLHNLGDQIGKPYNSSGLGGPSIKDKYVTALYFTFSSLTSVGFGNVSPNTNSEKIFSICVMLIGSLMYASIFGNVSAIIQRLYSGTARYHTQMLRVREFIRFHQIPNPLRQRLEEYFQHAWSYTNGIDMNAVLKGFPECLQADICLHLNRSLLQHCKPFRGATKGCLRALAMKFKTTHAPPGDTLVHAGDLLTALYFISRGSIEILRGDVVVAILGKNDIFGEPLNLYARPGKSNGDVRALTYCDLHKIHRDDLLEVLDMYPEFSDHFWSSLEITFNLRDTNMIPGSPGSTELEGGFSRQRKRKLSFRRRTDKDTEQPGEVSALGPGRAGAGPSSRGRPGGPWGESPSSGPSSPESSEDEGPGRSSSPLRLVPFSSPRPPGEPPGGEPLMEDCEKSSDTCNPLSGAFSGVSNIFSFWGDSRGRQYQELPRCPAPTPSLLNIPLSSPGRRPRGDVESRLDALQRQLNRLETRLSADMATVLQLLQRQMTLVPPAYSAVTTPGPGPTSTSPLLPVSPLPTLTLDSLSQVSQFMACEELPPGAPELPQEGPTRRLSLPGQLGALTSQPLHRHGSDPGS
`Cn1cc(-c2cnc(N)c(OCc3c(Cl)cccc3Cl)n2)cn1` gave an inhibition at 10 µM of 7%. In the case of `Cn1cc(-c2cnc(N)c(NCc3c(Cl)cccc3Cl)n2)cn1`, the inhibition at 10 µM is reported as 6%. With `Cn1cc(-c2cnc(N)c(OCc3ccccc3Cl)n2)cn1` the inhibition at 10 µM was 7%. `Nc1ncc(-c2ccc(C(=O)N3CCC[C@H]3CN3CCCC3)cc2)nc1NCc1c(Cl)cccc1Cl` was tested, and the inhibition at 10 µM was 78%. Work on `Nc1ncc(-c2ccc(C(=O)N3CCC[C@H]3CN3CCCC3)cc2)nc1OCc1c(Cl)cccc1Cl` yielded an inhibition at 10 µM of 91%.
